Laboratory results taken from US5994334A, “Androgen synthesis inhibitors” (priority 1997, dated 1999).
“Also recorded” adds a separate entry of the source. Read-outs that look alike come from different tables or passages of the source.

Columns and labels:
[1] = target: T1, Human Testicular C17,20-lyase (Homo sapiens, UniProt P05093); assay: Inhibition of human testicular C17,20-lyase (pregnenolone substrate, testicular microsomes); type: biochemical; details: for inhibition at 0.1 µM: read-out: % Inhibition C17,20-lyase, [I] = 100 nM; for inhibition at 0.4 µM: read-out: % Inhibition C17,20-lyase, [I] = 400 nM
T1 construct: incubating human testicular microsomes; from tissue; host or cells: human testis, microsomes
T1 sequence (P05093 1-508): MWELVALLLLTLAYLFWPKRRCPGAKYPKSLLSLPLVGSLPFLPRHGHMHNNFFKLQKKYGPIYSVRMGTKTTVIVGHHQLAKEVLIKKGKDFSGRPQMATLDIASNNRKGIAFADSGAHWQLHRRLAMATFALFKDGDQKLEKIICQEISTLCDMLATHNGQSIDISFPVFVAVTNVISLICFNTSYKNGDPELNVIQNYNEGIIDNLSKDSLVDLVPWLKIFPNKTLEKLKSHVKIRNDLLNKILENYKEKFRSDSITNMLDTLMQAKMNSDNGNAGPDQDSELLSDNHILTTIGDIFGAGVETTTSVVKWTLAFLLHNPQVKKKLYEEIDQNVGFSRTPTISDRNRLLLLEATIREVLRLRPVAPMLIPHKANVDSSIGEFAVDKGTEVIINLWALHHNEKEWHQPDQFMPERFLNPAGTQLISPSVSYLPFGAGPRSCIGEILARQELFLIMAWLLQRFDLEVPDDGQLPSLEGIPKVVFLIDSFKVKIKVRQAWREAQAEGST
Procedure: (§1) The conversion of radiolabeled pregnenolone to 17α-hydroxypregnenolone and DHEA by 17α-hydroxylase/C17,20 -lyase was measured by incubating human testicular microsomes with different concentration of test compounds. Reverse phase HPLC was used to separate and accurately quantify the amount of substrate and metabolites. The 17α-hydroxylase and C17,20 -lyase activities were calculated separately. The activity of 17α-hydroxylase was calculated from the conversion of pregnenolone to 17α-hydroxypregnenolone and DHEA and the activity of C17,20 -lyase was based on the conversion of pregnenolone to DHEA. Although 17α-hydroxypregnenolone is the substrate converted to DHEA by C17,20 -lyase, it has been reported that this 17α-hydroxy intermediate is not released from the enzyme binding site during conversion (Nakajin et al., 1981a,b). Also, there are species differences in substrate requirements. Pregnenolone is the natural substrate rather than progesterone for human testicular 17α-hydroxylase and C17,20 -lyase. Therefore, pregnenolone was used as substrate for measuring the activity of this enzyme complex.

[2] = target: T2, human 17α-hydroxylase/C17,20-lyase (Homo sapiens, UniProt P05093); assay: Inhibition of human testicular 17α-hydroxylase/C17,20-lyase (enzyme complex as a whole); type: biochemical
T2 construct: incubating human testicular microsomes; from tissue; host or cells: human testis, microsomes
T2 sequence (P05093 1-508): T1 sequence (P05093 1-508)
Procedure: as §1

[3] = target: T3, Human Testicular 17α-Hydroxylase (Homo sapiens, UniProt P05093); assay: Inhibition of human testicular 17α-hydroxylase (pregnenolone substrate, testicular microsomes); type: biochemical; details: for inhibition at 0.1 µM: read-out: % Inhibition 17α-hydroxylase, [I] = 100 nM; for inhibition at 0.4 µM: read-out: % Inhibition 17α-hydroxylase, [I] = 400 nM
T3 construct: incubating human testicular microsomes; from tissue; host or cells: human testis, microsomes
T3 sequence (P05093 1-508): T1 sequence (P05093 1-508)
Procedure: as §1

[4] = target: T4, Human Prostatic 5α-Reductase (Homo sapiens, UniProt P31213); assay: Inhibition of human prostatic 5α-reductase (prostatic microsomes, [3H]testosterone); details: for IC50: IC50 5α-reductase; for inhibition at 0.1 µM: read-out: % Inhibition of 5α-reductase, [I] 100 nM; for inhibition at 0.01 µM: read-out: % Inhibition of 5α-reductase, [I] 10 nM
T4 sequence (P31213 1-254): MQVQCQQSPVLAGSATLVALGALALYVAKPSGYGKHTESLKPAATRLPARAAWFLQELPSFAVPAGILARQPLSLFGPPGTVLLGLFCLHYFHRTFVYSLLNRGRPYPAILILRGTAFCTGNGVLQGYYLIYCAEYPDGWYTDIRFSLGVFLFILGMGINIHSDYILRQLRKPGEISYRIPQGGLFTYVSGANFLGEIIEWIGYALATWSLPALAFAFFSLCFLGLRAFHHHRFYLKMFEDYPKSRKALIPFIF

[5] = system: LNCaP human prostatic cancer cell line; assay: Androgen-dependent growth of LNCaP cells
Procedure: The ability of various inhibitors to reverse the stimulatory effect of testosterone on the growth of the LNCaP human prostatic cancer cell line was tested by comparing cell number in wells treated for 9 days with either drug vehicle only (control), 0.1 nM testosterone only, or 0.1 nM testosterone with inhibitor at 0.3, 1, 2.5, or 5 μM.

[6] = second figure of pair, read-out: IC50 C17,20-lyase
[7] = Table 1, NI = no inhibition, read-out: IC50 17α-OHase
[8] = Table 3, first figure of 17α-hydroxylase/lyase pair, read-out: IC50 17α-hydroxylase
[9] = first figure of pair, read-out: IC50 17α-hydroxylase

SMILES: Cc1nc([C@H]2CC[C@H]3[C@@H]4CC=C5C[C@@H](O)CC[C@]5(C)[C@H]4CC[C@]23C)c[nH]1 [Compound L-4]
- inhibition at 0.1 µM [1]: 70.2%
- inhibition at 0.4 µM [1]: 100%
- IC50 ([2]; one value for 17α-hydroxylase/lyase; NI = no inhibition; read-out: IC50 17α-hydroxylase/lyase (single entry)): 400 nM
- inhibition at 0.1 µM [3]: 13.8%
- inhibition at 0.4 µM [3]: 41.9%

SMILES: Cc1nc([C@H]2CC[C@H]3[C@@H]4CC=C5C[C@@H](O)CC[C@]5(C)[C@H]4CC[C@]23C)co1 [Compound L-5]
- inhibition at 0.1 µM ([1]; 100 nM, second figure of pair): 71.2%
- inhibition at 0.4 µM ([1]; 400 nM, second figure of pair): 81.7%
- inhibition of 17α-hydroxylase/C17,20-lyase (in words) ([2]; NI = no inhibition): less inhibition
- inhibition at 0.1 µM ([3]; 100 nM, first figure of pair): 22.4%
- inhibition at 0.4 µM ([3]; 400 nM, first figure of pair): 26.5%

SMILES: C[C@]12CCC(=O)C=C1CC[C@@H]1[C@@H]2CC[C@]2(C)C(c3c[nH]cn3)=CC[C@@H]12 [Compound L-6, 17β-(4'-imidazolyl)-androsta-4,16-dien-3-one]
- IC50 [4]: 522 nM
- IC50 ([4]; Table 2): 522 nM
- IC50 ([4]; Table 3, NI = no inhibition): 522 nM
- inhibition of 5α-reductase (in words) ([4]; NI = no inhibition): potent inhibitors; also recorded: potent inhibition of 5α-reductase
- inhibition at 0.1 µM [4]: 25.2%
- IC50 [1, 6]: 2 nM
- inhibition of 17α-hydroxylase/C17,20-lyase (in words) ([2]; NI = no inhibition): potent inhibitors
- times more potent than ketoconazole ([2]; vs ketoconazole): 10-50 times
- IC50 [3, 7]: 16 nM
- IC50 [3, 8]: 15.6 nM
- IC50 [3, 9]: 16 nM

SMILES: C[C@@H](O)C1=CC[C@H]2[C@@H]3CC=C4C[C@@H](O)CC[C@]4(C)[C@H]3CC[C@]12C [Compound L-8]
- inhibition at 0.01 µM [4]: 37.1%
- inhibition at 0.1 µM [1]: 66.2%
- inhibition at 0.4 µM [1]: 83.3%
- IC50 ([2]; read-out: IC50 17α-hydroxylase/lyase (single entry); one value for 17α-hydroxylase/lyase; NI = no inhibition): 100 nM
- inhibition at 0.4 µM [3]: 82.7%

SMILES: C[C@@H](O)C1=CC[C@H]2[C@@H]3CCC4=CC(=O)CC[C@]4(C)[C@H]3CC[C@]12C [Compound L-10, 20β-hydroxy-pregna-4,16-dien-3-one]
- IC50 [4]: 20 nM
- IC50 ([4]; Table 2): 21 nM
- IC50 ([4]; Table 3, NI = no inhibition): 21 nM
- inhibition of 5α-reductase (in words) ([4]; NI = no inhibition): almost equipotent with finasteride
- inhibition at 0.01 µM [4]: 97%
- inhibition at 0.1 µM [4]: 90.7%
- reversal of DHT-stimulated LNCaP growth (in words) ([5]; 0.03 nM DHT): not dose-dependent
- reversal of testosterone-stimulated LNCaP growth (in words) ([5]; 0.1 nM testosterone, inhibitor 0.3-5 μM, 9 days): dose-dependent reversal
- inhibition at 0.1 µM [1]: 2.28%
- inhibition at 0.4 µM [1]: 8.48%
- inhibition at 0.1 µM [3]: 14.9%
- inhibition at 0.4 µM [3]: 8.19%

SMILES: CC(=O)O[C@H]1CC[C@@]2(C)C(=CC[C@@H]3[C@@H]2CC[C@]2(C)C(c4c[nH]cn4)=CC[C@@H]32)C1 [Compound L-12]
- inhibition at 0.1 µM ([1]; 100 nM, second figure of pair): 82.1%
- inhibition at 0.4 µM ([1]; 400 nM, second figure of pair): 97%
- IC50 ([1]; Table 1, NI = no inhibition, CI = complete inhibition, read-out: IC50 C17,20 lyase): 25 nM
- IC50 ([1]; Table 3, second figure of pair, CI = complete inhibition, read-out: IC50 lyase): 24.8 nM
- IC50 [1, 6]: 25 nM
- inhibition of 17α-hydroxylase/C17,20-lyase (in words) ([2]; NI = no inhibition): lower potency than I-49; also recorded: weaker inhibitor than I-49
- inhibition at 0.1 µM ([3]; 100 nM, first figure of pair): 62.4%
- inhibition at 0.4 µM ([3]; 400 nM, first figure of pair): 89.3%
- IC50 [3, 7]: 75 nM
- IC50 [3, 8]: 74.6 nM
- IC50 [3, 9]: 75 nM

SMILES: CC(=O)C1=CC[C@H]2[C@@H]3CCC4=CC(=O)CC[C@]4(C)[C@H]3CC[C@]12C [Compound L-13, 16-dehydroprogesterone]
- IC50 [4]: 22 nM
- IC50 ([4]; Table 2): 22 nM
- IC50 ([4]; Table 3, NI = no inhibition): 21.8 nM
- inhibition of 5α-reductase (in words) ([4]; NI = no inhibition): potent inhibition of 5α-reductase; also recorded: almost equipotent with finasteride
- inhibition at 0.1 µM [4]: 87.8%
- inhibition at 0.4 µM ([4]; read-out: % Inhibition of 5α-reductase, [I] 400 nM): 96.4%
- IC50 ([1]; IC50 C17,20-lyase): 24 nM
- IC50 ([1]; IC50 C17,20 lyase): 24 nM
- IC50 ([1]; IC50 lyase): 23.7 nM
- inhibition of 17α-hydroxylase/C17,20-lyase (in words) ([2]; NI = no inhibition): potent inhibitors of both enzymes
- times more potent than ketoconazole ([2]; vs ketoconazole): 10-50 times
- IC50 ([3]; IC50 17α-OHase): 73 nM
- IC50 ([3]; IC50 17α-hydroxylase): 72.7 nM
- IC50 ([3]; IC50 17α-hydroxylase (text)): 73 nM
